According to ChEMBL document CHEMBL1201862, “PubChem BioAssay data set” (2004):
Activity calls are given as the source filed them.

What was measured:
HEK293 [1] = test: SAR Analysis of small molecule inhibitors of T-cell specific antigen receptor-induced NF-kB activation in a HEK-293T cell line using a luminescence assay - Set 2. [Related pubchem assays (depositor defined):AID435003, AID435012, AID489026]; type: functional, cell-based; details: Homo sapiens
Jurkat = test: SAR Analysis of small molecule inhibitors of T-cell specific antigen receptor-induced NF-kB activation in a Jurkat cell line using a luminescence assay - Set 2. [Related pubchem assays (depositor defined):AID435003, AID435012, AID465]; type: functional, cell-based; details: Homo sapiens
[2] = non-specific 3'UTR reporter inhibition in Clone20-Shn3RL – cell-based, Renilla luciferase, cherry-picked, counter-screen for Shn3 inhibitor project, dose response (AID 624133); type: functional
[3] = luciferase reporter signal suppression in cells – H4 neuroglioma cells, luminescence, dose response (AID 1990); type: functional, cell-based
[4] = biological target: T1, Beta-2 adrenergic receptor (Homo sapiens, UniProt P07550); test: Dose response for HTS for Beta-2AR agonists via FAP method from Powderset1.; type: functional
[5] = reduction of Shn3 3'UTR-driven luciferase in osteoblasts – cell-based, Clone20 osteoblasts, firefly luciferase, cherry-picked, dose response (AID 624132); type: functional;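 note: firefly luciferase luminescence from reporter carrying the Shn3 3'UTR in osteoblasts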
[6] = Luminescence Cell-Based Dose Response HTS to Identify Inhibitors of 5'UTR Stem-Loop Driven Prion Protein mRNA Translation in H4 Neuroglioblastoma Cells. [Related pubchem assays: 1827 (Project Summary), 1813 (Primary HTS)]; type: functional
[7] = biological target: T1, Beta-2 adrenergic receptor; test: ADRB2 activation measured by internalization – cell-based, FAP fluorogen, flow cytometry, cherry pick 1, dose response (AID 588763); type: functional
[8] = biological target: T2, Microphthalmia-associated transcription factor (Homo sapiens, UniProt O75030); test: reducers of TRPM1 reporter luminescence, concentration series – cell-based, SK-MEL-5, cherry-picked, set 3, MITF inhibitor project, dose response (AID 493073); type: functional;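 note: SK-MEL-5 melanoma cells with luciferase driven by the MITF target TRPM1 promoter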
T2 sequence (O75030 whole entry): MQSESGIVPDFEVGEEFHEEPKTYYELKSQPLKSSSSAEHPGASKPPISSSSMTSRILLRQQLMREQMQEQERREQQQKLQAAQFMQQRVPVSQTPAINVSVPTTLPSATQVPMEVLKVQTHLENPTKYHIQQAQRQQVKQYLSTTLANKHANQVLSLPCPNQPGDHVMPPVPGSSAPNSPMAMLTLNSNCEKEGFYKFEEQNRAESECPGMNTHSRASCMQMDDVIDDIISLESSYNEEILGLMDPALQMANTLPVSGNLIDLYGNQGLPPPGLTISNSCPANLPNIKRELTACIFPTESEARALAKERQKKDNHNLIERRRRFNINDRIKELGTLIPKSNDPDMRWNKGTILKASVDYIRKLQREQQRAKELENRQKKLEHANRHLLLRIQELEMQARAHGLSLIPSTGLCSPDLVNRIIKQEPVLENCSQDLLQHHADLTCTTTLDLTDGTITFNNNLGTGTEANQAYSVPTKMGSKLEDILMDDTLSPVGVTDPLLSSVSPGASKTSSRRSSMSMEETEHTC

[9] = biological target: T3, Heat shock factor protein 1 (Mus musculus, UniProt P38532); test: enhancement of HSF1-driven luciferase signal – cell-based, NIH3T3, luminescence, dose retest, confirmation (AID 435004); type: functional;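 note: stress induced by proteasome inhibitor MG132 added 30 min after compound; luciferase reporter driven by HSF1 response element in NIH3T3 cells; actives raise luminescence as potentiators of the MG132 stress response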
T3 sequence (P38532 whole entry): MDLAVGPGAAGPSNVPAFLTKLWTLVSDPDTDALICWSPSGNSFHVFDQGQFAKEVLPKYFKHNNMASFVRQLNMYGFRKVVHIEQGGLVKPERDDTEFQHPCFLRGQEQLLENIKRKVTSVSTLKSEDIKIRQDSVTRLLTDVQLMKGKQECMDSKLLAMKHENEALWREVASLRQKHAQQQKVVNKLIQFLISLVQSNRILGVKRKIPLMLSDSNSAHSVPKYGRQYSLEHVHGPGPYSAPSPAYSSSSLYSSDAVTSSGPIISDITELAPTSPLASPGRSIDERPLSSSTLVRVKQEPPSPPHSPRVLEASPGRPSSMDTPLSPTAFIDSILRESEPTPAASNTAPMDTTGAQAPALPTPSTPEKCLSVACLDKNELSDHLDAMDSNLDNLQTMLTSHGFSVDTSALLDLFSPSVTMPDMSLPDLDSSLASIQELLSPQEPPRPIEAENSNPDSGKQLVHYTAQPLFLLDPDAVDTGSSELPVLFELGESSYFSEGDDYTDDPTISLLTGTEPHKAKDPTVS

[10] = alpha-synuclein stem-loop luciferase translation blockers – H4 neuroglioma cells, luminescence, confirmation (AID 1988); type: functional, cell-based
[11] = loss of viability in HepG2 cells – cell-based, CellTiter-Glo, cherry-picked, cytotoxicity control for Shn3 inhibitor project, dose response (AID 624134); type: functional
HEK293 [12] = test: HEK293T cell viability loss, resazurin readout – resazurin fluorescence, cytotoxicity control for NF-kB activator project, SAR follow-up (AID 493251); type: functional, cell-based; details: Homo sapiens
Hexokinase HKDC1 = biological target: T4, Hexokinase HKDC1 (Homo sapiens, UniProt Q2TB90); test: SAR analysis of small molecule inhibitors of hexokinase domain containing I (HKDC1). [Related pubchem assays (depositor defined):AID493160, AID493190]; type: functional
T4 sequence (Q2TB90 whole entry): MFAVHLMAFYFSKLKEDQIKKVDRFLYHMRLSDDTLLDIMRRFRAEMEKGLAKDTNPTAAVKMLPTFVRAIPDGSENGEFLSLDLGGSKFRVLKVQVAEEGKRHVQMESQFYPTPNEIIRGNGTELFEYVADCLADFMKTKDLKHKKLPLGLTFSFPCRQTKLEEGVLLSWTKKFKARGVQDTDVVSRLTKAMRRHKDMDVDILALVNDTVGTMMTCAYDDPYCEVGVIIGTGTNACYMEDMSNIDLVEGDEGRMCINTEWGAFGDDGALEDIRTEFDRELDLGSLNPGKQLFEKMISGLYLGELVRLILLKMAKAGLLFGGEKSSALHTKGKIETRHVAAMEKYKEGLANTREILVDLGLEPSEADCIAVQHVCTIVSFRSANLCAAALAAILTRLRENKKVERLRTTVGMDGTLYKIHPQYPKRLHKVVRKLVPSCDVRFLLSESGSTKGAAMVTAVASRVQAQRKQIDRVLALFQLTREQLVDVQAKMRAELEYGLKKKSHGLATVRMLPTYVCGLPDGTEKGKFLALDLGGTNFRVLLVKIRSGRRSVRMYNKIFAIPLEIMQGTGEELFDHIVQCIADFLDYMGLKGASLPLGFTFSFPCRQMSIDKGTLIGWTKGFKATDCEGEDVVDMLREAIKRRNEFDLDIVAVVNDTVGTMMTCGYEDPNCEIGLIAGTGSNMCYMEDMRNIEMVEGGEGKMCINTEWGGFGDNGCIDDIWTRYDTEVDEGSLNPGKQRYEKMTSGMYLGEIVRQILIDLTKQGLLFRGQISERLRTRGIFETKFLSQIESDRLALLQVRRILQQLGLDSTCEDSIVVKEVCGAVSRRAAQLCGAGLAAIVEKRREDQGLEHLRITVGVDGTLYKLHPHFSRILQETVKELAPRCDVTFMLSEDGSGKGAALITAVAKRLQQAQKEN

Hexokinase-1 = biological target: T5, Hexokinase-1 (Homo sapiens, UniProt P19367); test: SAR analysis of small molecule inhibitors of hexokinase domain containing I (HKDC1) in the hexokinase 1 selectivity assay. [Related pubchem assays (depositor defined):AID493160, AID493190]; type: functional
T5 sequence (P19367 whole entry): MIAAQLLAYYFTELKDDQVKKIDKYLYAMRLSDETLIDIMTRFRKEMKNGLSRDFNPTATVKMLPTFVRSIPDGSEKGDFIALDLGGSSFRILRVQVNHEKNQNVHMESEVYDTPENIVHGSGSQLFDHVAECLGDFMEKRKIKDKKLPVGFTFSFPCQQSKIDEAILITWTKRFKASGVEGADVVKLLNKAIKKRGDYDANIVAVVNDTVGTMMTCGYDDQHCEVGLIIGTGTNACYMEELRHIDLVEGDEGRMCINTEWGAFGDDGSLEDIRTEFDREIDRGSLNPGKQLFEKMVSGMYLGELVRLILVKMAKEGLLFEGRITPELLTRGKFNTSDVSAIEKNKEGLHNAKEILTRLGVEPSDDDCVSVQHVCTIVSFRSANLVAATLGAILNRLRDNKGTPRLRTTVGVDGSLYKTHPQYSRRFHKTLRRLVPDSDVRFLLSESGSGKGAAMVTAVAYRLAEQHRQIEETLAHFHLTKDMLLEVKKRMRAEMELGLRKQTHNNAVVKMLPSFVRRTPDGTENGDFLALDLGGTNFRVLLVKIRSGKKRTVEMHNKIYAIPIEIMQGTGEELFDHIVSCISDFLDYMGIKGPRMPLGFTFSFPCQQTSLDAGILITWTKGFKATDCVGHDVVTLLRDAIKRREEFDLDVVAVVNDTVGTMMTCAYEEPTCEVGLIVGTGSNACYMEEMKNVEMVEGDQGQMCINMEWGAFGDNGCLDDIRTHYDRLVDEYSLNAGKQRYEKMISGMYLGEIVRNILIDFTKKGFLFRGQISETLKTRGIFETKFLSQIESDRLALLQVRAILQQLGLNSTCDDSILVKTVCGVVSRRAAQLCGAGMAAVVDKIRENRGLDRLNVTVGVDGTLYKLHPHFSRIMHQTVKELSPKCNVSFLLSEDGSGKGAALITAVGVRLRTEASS

HEK293 [13] = test: cells; type: functional, cell-based; details: Homo sapiens
[14] = biological target: T6, Nuclear receptor subfamily 0 group B member 1 (Homo sapiens, UniProt P51843); test: Luminescence-based cell-based high throughput dose response assay for inhibitors of the orphan nuclear receptor subfamily 0, group B, member 1 (DAX1; NR0B1). [Related pubchem assays (depositor defined):AID504766, AID504790]; type: functional
T6 sequence (P51843 whole entry): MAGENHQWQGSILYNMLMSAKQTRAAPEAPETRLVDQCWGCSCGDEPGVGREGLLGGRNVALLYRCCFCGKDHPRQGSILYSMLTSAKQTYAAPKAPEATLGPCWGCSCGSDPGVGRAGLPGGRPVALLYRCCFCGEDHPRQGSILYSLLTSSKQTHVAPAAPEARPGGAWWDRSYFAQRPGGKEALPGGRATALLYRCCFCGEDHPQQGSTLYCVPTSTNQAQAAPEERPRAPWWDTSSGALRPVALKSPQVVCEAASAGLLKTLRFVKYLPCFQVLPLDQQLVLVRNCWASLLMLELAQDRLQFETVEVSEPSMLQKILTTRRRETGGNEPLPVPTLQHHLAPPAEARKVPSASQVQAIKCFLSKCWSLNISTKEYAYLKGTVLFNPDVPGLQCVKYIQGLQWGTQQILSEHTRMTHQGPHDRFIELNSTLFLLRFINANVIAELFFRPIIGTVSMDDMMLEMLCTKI

T1 sequence (P07550 whole entry): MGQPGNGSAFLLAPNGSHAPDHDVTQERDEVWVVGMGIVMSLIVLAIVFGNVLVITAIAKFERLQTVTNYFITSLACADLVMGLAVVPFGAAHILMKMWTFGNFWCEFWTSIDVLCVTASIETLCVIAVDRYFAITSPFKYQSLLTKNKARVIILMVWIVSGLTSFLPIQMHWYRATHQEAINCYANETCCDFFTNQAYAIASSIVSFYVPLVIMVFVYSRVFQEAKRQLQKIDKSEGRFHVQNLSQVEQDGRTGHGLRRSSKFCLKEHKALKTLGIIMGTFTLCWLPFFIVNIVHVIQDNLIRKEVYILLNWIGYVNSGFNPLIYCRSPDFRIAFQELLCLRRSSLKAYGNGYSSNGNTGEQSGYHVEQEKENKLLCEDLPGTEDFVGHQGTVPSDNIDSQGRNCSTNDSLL

SMILES: O=C(Nc1ccc(-c2nc3ncccc3o2)cc1)c1ccc([N+](=O)[O-])o1
- IC50 (HEK293 [1]): > 80 µM (inactive)
- IC50 (Jurkat): > 79 µM (inactive)
- AC50 [2]: 11 µM (active)
- EC50 [3]: > 120 µM (not active)
- EC50 [4]: 0.152 µM (active)
- AC50 [5]: 1.34 µM (active)
- EC50 [6]: > 120 µM (not active)
- EC50 [7]: 0.636 µM (active)
- AC50 [8]: 3.63 µM (active)
- EC50 [9]: 7.12 µM (active)
- EC50 [10]: > 60 µM (not active)
- AC50 [11]: 22.6 µM (active)
- IC50 (HEK293 [12]): > 80 µM (inactive)

SMILES: O=C(Nc1cccc(C(F)(F)F)c1)c1cccc(NC(=O)c2ccc3ccccc3n2)c1
- IC50 (Hexokinase HKDC1): > 80 µM (inactive)
- IC50 (Hexokinase-1): > 80 µM (inactive)

SMILES: COc1cccc(CNC(=O)CN(C)S(=O)(=O)c2ccc(Br)s2)c1
- IC50 (HEK293 [13]): 24.6 µM (inactive)
- IC50 [14]: > 67.5 µM (inactive)
